According to the NIST ThermoML archive (doi:10.1021/je200969r):

Experiment: refractive index (other wavelength) (dimensionless)
Conditions: 101.33 kPa, Liquid, Minimum Deviation technique

[2H]O[2H] [water-d2]
refractive index
Conditions | Wavelength=543.5 nm | Wavelength=594.1 nm | Wavelength=632.8 nm
288.35 K | 1.33 | 1.3283 | 1.3272
293.29 K | 1.3298 | 1.3281 | 1.327
298.12 K | 1.3293 | 1.3278 | 1.3267
303.15 K | 1.3285 | 1.3271 | 1.326
308.09 K | 1.328 | 1.3266 | 1.3254
313.11 K | 1.3275 | 1.3259 | 1.3249
318.13 K | 1.3269 | 1.3254 | 1.3243
323.14 K | 1.3263 | 1.3248 | 1.3237
328.12 K | 1.3251 | 1.3236 | 1.3225
333.06 K | 1.3244 | 1.3229 | 1.3219
337.98 K | 1.3237 | 1.3221 | 1.3211
